# Measured values from patent US20240174638A1, “HETEROARYL DERIVATIVES AS APELIN RECEPTOR AGONISTS” (RESEARCH TRIANGLE INSTITUTE, priority 2021, published 2024).
# Experiments:
# [1] = test system: LAD-ligated male C57BI/6 mice (myocardial infarction); assay: Cardiac function after coronary artery (LAD) ligation, echocardiography; type: in vivo, mouse
# Source text: Adult male C57BI/6 mice, 3 months old, were purchased from Jackson Laboratories and acclimated for 3 or more days in standard housing. All mice underwent twice daily intra-gastric administration of physiologic saline for 7 days pre-operatively (acclimation period). They also underwent standard B- and M-mode echocardiographic (ECHO) imaging (VisualSonics Vevo 2100) of the left heart under conscious restraint, 1-5 days prior to surgery.
# Under ketamine/xylazine anesthesia, mice were intubated and ventilated, then incised through the left thoracic wall between the 3rd and 4th ribs to expose the heart. For ligation of the left anterior descending coronary artery (LAD), an 8-0 nylon suture was inserted under microscopic view (Wild/Leica operating microscope), placing and tying the ligature at a point 1 mm distal to the point where the artery emerges from the edge of the left atrium. Confirmation was provided by clear blanching of the downstream ventricle wall. Control sham-treated mice underwent needle and 8-0 suture passage under the coronary artery but with suture removal without ligation. The wound was closed with 6-0 suture in two layers (muscle and skin, respectively) and mice were recovered on a warming blanket. They received buprenorphine intraoperatively and twice daily postoperatively for 48 hours, by subcutaneous injection (50 ug/kg body weight).
# A total of 48 mice entered the study. Eight mice underwent sham surgery, and these mice received vehicle treatment after surgery. 40 mice underwent LAD ligation, with 20 in each treatment group. Treatment was by oral gavage (intra-gastric administration) at 10 mL/kg body weight, twice daily (7-9 am and 4-6 pm), starting 1-2 hours after surgery and continuing until study termination. Treatment was either with EXAMPLE 22 at a concentration of 3 mg/mL (30 mg/kg) or vehicle for the test agent.
# Echocardiography was done under brief, conscious restraint using a VisualSonics Vevo 2100 ultrasound machine, pre-operatively and at 2 and 4 weeks postoperatively. Standard B-mode and M-mode ultrasound imaging was captured at each imaging session. Echocardiographic images were analyzed for left ventricular function, measuring the interventricular septal thickness, internal ventricular cavity dimension, and posterior wall thickness at both diastole and systole from M-mode images at the level of the papillary muscles. The left ventricle ejection fraction and fractional shortening were calculated from these values:
# Ejection Fraction (%)=100×[LVIDd^3−LVIDs^3]/LVIDd^3Fractional Shortening (%)=100×[LVIDd−LVIDs]/LVIDd, • where LVID=left ventricle inner diameter (internal ventricular cavity dimension), d=diastole, s=systole
# After the 4-week ECHO imaging, mice were anesthetized and a terminal blood draw was taken from the abdominal aorta into 3.8% citrate (9:1), and the plasma was obtained by centrifugation and frozen. Mice were then euthanized (anesthesia overdose followed by cervical dislocation) and the hearts were weighed and the area of infarction was visually measured with t ruler for cranial-caudal and for lateral axes lengths of the approximately oval infarction zone (ligated hearts only). The hearts, and both kidneys, were then immersion-fixed in neutral-buffered formalin for subsequent histopathological evaluation. Plasma, kidney, and heart specimens were returned to Study Sponsor for further evaluation. The time between the last drug dosing and the blood draw was recorded, for future dose-response evaluation by Study Sponsor.
# Summary statistics by “treatment” were provided for the change from baseline to week 2 and change from baseline to week 4 where baseline was defined as the pre-echos time-point. For each parameter, the mean “treatment” difference between “Example 22” and “Vehicle” was analyzed using a 2-sample t-test. The analysis was conducted using SAS Version 9.4 via PROC TTEST under unequal variances for the “treatments” using the Satterthwaite method. […]
# [2] = test system: Salmonella typhimurium (TA98, TA100, TA1535 and TA1537)
# in vitro = conditions: human
# [3] = Ex 22 vs Vehicle, LAD-ligated mice, 30 mg/kg p.o. twice daily
# [4] = LAD-ligated mice, 30 mg/kg p.o. twice daily
smiles,measurement,setting,value
"O=C(O)C[C@H](CCN1CCCC(F)(F)C1)NC(=O)c1cc(-c2ccccc2C(F)(F)F)n(-c2nccs2)n1 [Example 22, (3S)-5-(3,3-difluoropiperidin-1-yl)-3-{[1-(1,3-thiazol-2-yl)-5-[2-(trifluoromethyl)phenyl]-1H-pyrazol-3-yl]formamido}pentanoic acid]",deaths in ligated group,"[1]; 30 mg/kg p.o. twice daily, deaths between 3 and 11 days postoperatively, vehicle 7/20",2/20
same,ejection fraction,[1]; 4 weeks post-treatment,Statistically significant improvement
same,"EF, Change from baseline, Week 2, Difference",[1]; [3],4.81%
same,"EF, Change from baseline, Week 4, Difference",[1]; [3],10.70%
same,"FS, Change from baseline, Week 2, Difference",[1]; [3],4.21%
same,"FS, Change from baseline, Week 4, Difference",[1]; [3],7.17%
same,"Heart Rate, Change from baseline, Week 2, Difference",[1]; [3],11.43
same,"Heart Rate, Change from baseline, Week 4, Difference",[1]; [3],−6.42
same,"IVS d, Change from baseline, Week 2, Difference",[1]; [3],0.40
same,"IVS d, Change from baseline, Week 4, Difference",[1]; [3],0.49
same,"IVS s, Change from baseline, Week 2, Difference",[1]; [3],0.47
same,"IVS s, Change from baseline, Week 4, Difference",[1]; [3],0.56
same,"LV Mass corrected, Change from baseline, Week 2, Difference",[1]; [3],18.64
same,"LV Mass corrected, Change from baseline, Week 4, Difference",[1]; [3],7.38
same,"LV Mass, Change from baseline, Week 2, Difference",[1]; [3],23.30
same,"LV Mass, Change from baseline, Week 4, Difference",[1]; [3],9.23
same,"LV VoI d, Change from baseline, Week 2, Difference",[1]; [3],−5.56
same,"LV VoI d, Change from baseline, Week 4, Difference",[1]; [3],−29.03
same,"LV VoI s, Change from baseline, Week 2, Difference",[1]; [3],−1.67
same,"LV VoI s, Change from baseline, Week 4, Difference",[1]; [3],−22.79
same,"LVID d, Change from baseline, Week 2, Difference",[1]; [3],−0.23
same,"LVID d, Change from baseline, Week 4, Difference",[1]; [3],−0.70
same,"LVID s, Change from baseline 2, Week 2, Difference",[1]; [3],−0.22
same,"LVID s, Change from baseline, Week 4, Difference",[1]; [3],−0.74
same,"LVPW d, Change from baseline, Week 2, Difference",[1]; [3],0.03
same,"LVPW d, Change from baseline, Week 4, Difference",[1]; [3],0.20
same,"LVPW s, Change from baseline, Week 2, Difference",[1]; [3],0.09
same,"LVPW s, Change from baseline, Week 4, Difference",[1]; [3],0.38
same,"Weight, Change from baseline, Week 2, Difference",[1]; [3],0.21
same,"Weight, Change from baseline, Week 4, Difference",[1]; [3],0.26
same,"EF, Change from baseline, Week 2, Mean",[1]; [4],−34.17%
same,"EF, Change from baseline, Week 2, Median",[1]; [4],−36.15%
same,"EF, Change from baseline, Week 4, Mean",[1]; [4],−38.46%
same,"EF, Change from baseline, Week 4, Median",[1]; [4],−37.79%
same,"FS, Change from baseline, Week 2, Mean",[1]; [4],−25.71%
same,"FS, Change from baseline, Week 2, Median",[1]; [4],−27.07%
same,"FS, Change from baseline, Week 4, Mean",[1]; [4],−28.24%
same,"FS, Change from baseline, Week 4, Median",[1]; [4],−28.24%
same,"Heart Rate, Change from baseline, Week 2, Mean",[1]; [4],20.04
same,"Heart Rate, Change from baseline, Week 2, Median",[1]; [4],40.66
same,"Heart Rate, Change from baseline, Week 4, Mean",[1]; [4],4.65
same,"Heart Rate, Change from baseline, Week 4, Median",[1]; [4],11.40
same,"IVS d, Change from baseline, Week 2, Mean",[1]; [4],−0.03
same,"IVS d, Change from baseline, Week 2, Median",[1]; [4],0.02
same,"IVS d, Change from baseline, Week 4, Mean",[1]; [4],0.10
same,"IVS d, Change from baseline, Week 4, Median",[1]; [4],0.12
same,"IVS s, Change from baseline, Week 2, Mean",[1]; [4],−0.17
same,"IVS s, Change from baseline, Week 2, Median",[1]; [4],−0.24
same,"IVS s, Change from baseline, Week 4, Mean",[1]; [4],−0.02
same,"IVS s, Change from baseline, Week 4, Median",[1]; [4],0.11
same,"LV Mass corrected, Change from baseline, Week 2, Mean",[1]; [4],54.81
same,"LV Mass corrected, Change from baseline, Week 2, Median",[1]; [4],63.28
same,"LV Mass corrected, Change from baseline, Week 4, Mean",[1]; [4],66.14
same,"LV Mass corrected, Change from baseline, Week 4, Median",[1]; [4],66.57
same,"LV Mass, Change from baseline, Week 2, Mean",[1]; [4],68.51
same,"LV Mass, Change from baseline, Week 2, Median",[1]; [4],79.11
same,"LV Mass, Change from baseline, Week 4, Mean",[1]; [4],82.67
same,"LV Mass, Change from baseline, Week 4, Median",[1]; [4],83.21
same,"LV VoI d, Change from baseline, Week 2, Mean",[1]; [4],39.76
same,"LV VoI d, Change from baseline, Week 2, Median",[1]; [4],38.79
same,"LV VoI d, Change from baseline, Week 4, Mean",[1]; [4],53.15
same,"LV VoI d, Change from baseline, Week 4, Median",[1]; [4],51.79
same,"LV VoI s, Change from baseline, Week 2, Mean",[1]; [4],33.74
same,"LV VoI s, Change from baseline, Week 2, Median",[1]; [4],33.90
same,"LV VoI s, Change from baseline, Week 4, Mean",[1]; [4],45.96
same,"LV VoI s, Change from baseline, Week 4, Median",[1]; [4],39.02
same,"LVID d, Change from baseline, Week 2, Mean",[1]; [4],1.11
same,"LVID d, Change from baseline, Week 2, Median",[1]; [4],1.09
same,"LVID d, Change from baseline, Week 4, Mean",[1]; [4],1.36
same,"LVID d, Change from baseline, Week 4, Median",[1]; [4],1.45
same,"LVID s, Change from baseline 2, Week 2, Mean",[1]; [4],1.62
same,"LVID s, Change from baseline 2, Week 2, Median",[1]; [4],1.69
same,"LVID s, Change from baseline, Week 4, Mean",[1]; [4],1.93
same,"LVID s, Change from baseline, Week 4, Median",[1]; [4],1.92
same,"LVPW d, Change from baseline, Week 2, Mean",[1]; [4],0.09
same,"LVPW d, Change from baseline, Week 2, Median",[1]; [4],0.13
same,"LVPW d, Change from baseline, Week 4, Mean",[1]; [4],−0.00
same,"LVPW d, Change from baseline, Week 4, Median",[1]; [4],0.00
same,"LVPW s, Change from baseline, Week 2, Mean",[1]; [4],−0.29
same,"LVPW s, Change from baseline, Week 2, Median",[1]; [4],−0.30
same,"LVPW s, Change from baseline, Week 4, Mean",[1]; [4],−0.39
same,"LVPW s, Change from baseline, Week 4, Median",[1]; [4],−0.35
same,"Weight, Change from baseline, Week 2, Mean",[1]; [4],−0.13
same,"Weight, Change from baseline, Week 2, Median",[1]; [4],−0.30
same,"Weight, Change from baseline, Week 4, Mean",[1]; [4],0.89
same,"Weight, Change from baseline, Week 4, Median",[1]; [4],0.70
same,cardiac function after MI,"[1]; compared to vehicle treated animals, 30 mg/kg p.o. twice daily",improved cardiac fraction
same,Cytotoxicity Code,[2],N
same,cytotoxicity to tester strains,[2],No cytotoxicity was observed
same,dose related increase of revertant colonies,[2],No dose related increase
same,precipitate in Mini-Ames assay,[2],No precipitate was observed
same,"recovery at 6 h, 1 μM",in vitro,74.4%
